{"source": "patent US4330550A", "about": "“Oxoimidazolinealkanoic acids and their salts and esters, their preparation and pharmaceutical compositions containing them” (A. Nattermann & Cie. GmbH, priority 1979, dated 1982)", "test_system": "collagen-induced aggregation of platelets (human plasma with a high platelet content)", "assay": "Inhibition of collagen-induced aggregation of thrombocytes in vitro (method of Born)", "assay_type": "cell-based", "settings": "0.3 μmol/ml", "from_the_text": "The aggregation of platelets in the presence of the compounds of the invention has been tested by the collagen-induced aggregation method of Born., Nature 4832/927, 29 (1962). The effect of the compounds in inhibiting thrombocyte aggregation was investigated in vitro on human plasma with a high platelet content.\nThe percentage inhibition of collagen-induced aggregation in vitro by compounds from the Examples indicated in Table 3, or combinations thereof with heparin, at a final concentration of 0.3 or 0.6 μmol of compound per ml of human plasma with a high platelet content, can be seen from the following Table.", "note": "Counter-ions that a name gives are not always drawn.", "data": [{"smiles": "O=C(O)CCCCCCCn1c(-c2ccccc2)c[nH]c1=O", "note": "[Example 1c, sodium salt of 8-(2-oxo-5-phenyl-4-imidazolin-1-yl)-caprylic acid]", "values": [{"measurement": "% inhibition compared with the control (collagen-induced aggregation)", "result": 80, "unit": "%"}]}, {"smiles": "O=C(O)CCCCCCn1c(-c2ccccc2)c[nH]c1=O", "note": "[Example 2c]", "values": [{"measurement": "% inhibition compared with the control (collagen-induced aggregation)", "result": 46, "unit": "%"}]}, {"smiles": "O=C(O)CCCCCCn1c(-c2ccc(Cl)cc2)c[nH]c1=O", "note": "[Example 5c]", "values": [{"measurement": "% inhibition compared with the control (collagen-induced aggregation)", "result": 63, "unit": "%"}]}]}
